Laboratory results as given in patent US20250221410A1, “SUBSTITUTED 2-C-AZINES AND SALTS THEREOF, AND USE THEREOF AS HERBICIDAL ACTIVE SUBSTANCES” (BAYER AKTIENGESELLSCHAFT, priority 2022, published 2025).

Columns and labels:
Format in all cases: in vivo
[1] = tested on: ABUTH: Abutilon theophrasti; assay: Post-emergence herbicidal efficacy at 1280 g/ha, ABUTH; settings: rated visually after about 3 weeks vs untreated controls, 100% = plants have died, 0% = like control plants
Summary of the method: (§1)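 Visual damage rating was made roughly 3 weeks after treatment, relative to untreated plants, on a scale where 0% means no effect and 100% means plants died. Foliar application was at the one-leaf stage as an aqueous WP/EC spray with 0.5% additive at 600 L/ha water, on greenhouse-grown pot plants.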

[2] = tested on: AMARE: Amaranthus retroflexus; assay: Post-emergence herbicidal efficacy at 1280 g/ha, AMARE; settings: rated visually after about 3 weeks vs untreated controls, 100% = plants have died, 0% = like control plants
Summary of the method: as §1

[3] = tested on: DIGSA: Digitaria sanguinalis; assay: Post-emergence herbicidal efficacy at 1280 g/ha, DIGSA; settings: rated visually after about 3 weeks vs untreated controls, 100% = plants have died, 0% = like control plants
Summary of the method: as §1

[4] = tested on: ECHCG: Echinochloa crus-galli; assay: Post-emergence herbicidal efficacy at 1280 g/ha, ECHCG; settings: rated visually after about 3 weeks vs untreated controls, 100% = plants have died, 0% = like control plants
Summary of the method: as §1

[5] = tested on: KCHSC: Kochia scoparia; assay: Post-emergence herbicidal efficacy at 1280 g/ha, KCHSC; settings: visual rating about 3 weeks after treatment vs untreated controls
Summary of the method: as §1

[6] = tested on: POAAN: Poa annua; assay: Post-emergence herbicidal efficacy at 1280 g/ha, POAAN; settings: visual rating about 3 weeks after treatment vs untreated controls
Summary of the method: as §1

[7] = tested on: SETVI: Setaria viridis; assay: Post-emergence herbicidal efficacy at 1280 g/ha, SETVI; settings: visual rating about 3 weeks after treatment vs untreated controls
Summary of the method: as §1

[8] = tested on: STEME: Stellaria media; assay: Post-emergence herbicidal efficacy at 1280 g/ha, STEME; settings: visual rating about 3 weeks after treatment vs untreated controls
Summary of the method: as §1

[9] = tested on: VERPE: Veronica persica; assay: Post-emergence herbicidal efficacy at 1280 g/ha, VERPE; settings: visual rating about 3 weeks after treatment vs untreated controls
Summary of the method: as §1

[10] = tested on: ABUTH: Abutilon theophrasti; assay: Pre-emergence herbicide efficacy at 1280 g/ha, ABUTH; settings: visual scoring after about 3 weeks vs untreated controls
Summary of the method: (§2)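 Visual scoring after about 3 weeks in the greenhouse, as percent activity relative to untreated pots, where 0% matches controls and 100% means dead plants. Treatment was pre-emergence: WP or EC formulations sprayed onto soil covering the sown seeds, 600 L/ha water plus 0.5% additive.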

[11] = tested on: ALOMY: Alopecurus myosuroides; assay: Pre-emergence herbicide efficacy at 1280 g/ha, ALOMY; settings: visual scoring after about 3 weeks vs untreated controls
Text: (§3) Seeds of mono- and dicotyledonous weed plants were placed in plastic pots in sandy loam soil (doubly sown with one species each of mono- or dicotyledonous weed plants per pot) and covered with soil. The compounds of the invention, formulated in the form of wettable powders (WP) or as emulsion concentrates (EC), were then applied to the surface of the covering soil as aqueous suspension or emulsion with addition of 0.5% additive at a water application rate of 600 litres per hectare (converted). After the treatment, the pots were placed in a greenhouse and kept under good growth conditions for the test plants. After about 3 weeks, the efficacy of the preparations was scored visually in comparison with untreated controls as percentages. For example, 100% activity=the plants have died, 0% activity=like control plants. Tables C1 to C12 below show the effects of selected compounds of the general formula (I) according to Table 1 on various harmful plants and at an application rate corresponding to 1280 g/ha, which were obtained by the trial procedure specified above.

[12] = tested on: AMARE: Amaranthus retroflexus; assay: Pre-emergence herbicide efficacy at 1280 g/ha, AMARE; settings: visual scoring after about 3 weeks vs untreated controls
Summary of the method: as §2

[13] = tested on: DIGSA: Digitaria sanguinalis; assay: Pre-emergence herbicide efficacy at 1280 g/ha, DIGSA; settings: visual scoring after about 3 weeks vs untreated controls
Summary of the method: as §2

[14] = tested on: ECHCG: Echinochloa crus-galli; assay: Pre-emergence herbicide efficacy at 1280 g/ha, ECHCG; settings: visual scoring after about 3 weeks vs untreated controls
Summary of the method: as §2

[15] = tested on: KCHSC: Kochia scoparia; assay: Pre-emergence herbicide efficacy at 1280 g/ha, KCHSC; settings: visual scoring after about 3 weeks vs untreated controls
Summary of the method: as §2

[16] = tested on: LOLRI: Lolium rigidum; assay: Pre-emergence herbicide efficacy at 1280 g/ha, LOLRI; settings: visual scoring after about 3 weeks vs untreated controls
Text: as §3

[17] = tested on: MATIN: Matricaria inodora; assay: Pre-emergence herbicide efficacy at 1280 g/ha, MATIN; settings: visual scoring after about 3 weeks vs untreated controls
Summary of the method: as §2

[18] = tested on: POAAN: Poa annua; assay: Pre-emergence herbicide efficacy at 1280 g/ha, POAAN; settings: visual scoring after about 3 weeks vs untreated controls
Summary of the method: as §2

[19] = tested on: SETVI: Setaria viridis; assay: Pre-emergence herbicide efficacy at 1280 g/ha, SETVI; settings: visual scoring vs untreated controls
Summary of the method: as §2

[20] = tested on: STEME: Stellaria media; assay: Pre-emergence herbicide efficacy at 1280 g/ha, STEME; settings: visual scoring vs untreated controls
Summary of the method: as §2

[21] = tested on: VERPE: Veronica persica; assay: Pre-emergence herbicide efficacy at 1280 g/ha, VERPE; settings: visual scoring vs untreated controls
Summary of the method: as §2

[22] = tested on: AMARE: Amaranthus retroflexus; assay: Post-emergence herbicidal efficacy at 80 g/ha, AMARE; settings: visual rating about 3 weeks after treatment vs untreated controls
Summary of the method: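 Pot-grown weeds in sandy loam were sprayed at one-leaf stage (2–3 weeks post-sowing) with WP or EC formulations plus 0.5% additive at 600 l/ha water. About 3 weeks later in the greenhouse, activity was rated visually against untreated controls, 0% = like control, 100% = dead.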

[23] = tested on: VERPE: Veronica persica; assay: Post-emergence herbicidal efficacy at 80 g/ha, VERPE; settings: visual rating about 3 weeks after treatment vs untreated controls
Procedure: (§4) Seeds of monocotyledonous and dicotyledonous weeds and crop plants were placed in sandy loam in plastic or organic planting pots, covered with soil and cultivated in a greenhouse under controlled growth conditions. 2 to 3 weeks after sowing, the test plants were treated at the one-leaf stage. The compounds of the invention, formulated in the form of wettable powders (WP) or as emulsion concentrates (EC), were then sprayed onto the green parts of the plants as aqueous suspension or emulsion with addition of 0.5% additive at a water application rate of 600 l/ha (converted). After the test plants had been kept in the greenhouse under optimum growth conditions for about 3 weeks, the activity of the preparations was rated visually in comparison to untreated controls. For example, 100% activity=the plants have died, 0% activity=like control plants. Tables B1 to B10 below show the effects of selected compounds of the general formula (I) according to Table 1 on various harmful plants and an application rate corresponding to 80 g/ha, which were obtained by the experimental procedure mentioned above.

[24] = tested on: VIOTR: Viola tricolor; assay: Post-emergence herbicidal efficacy at 80 g/ha, VIOTR; settings: visual rating about 3 weeks after treatment vs untreated controls
Procedure: as §4

[25] = tested on: ABUTH: Abutilon theophrasti; assay: Pre-emergence herbicide efficacy at 80 g/ha, ABUTH; settings: scored visually after about 3 weeks
Text: (§5) Seeds of monocotyledonous and dicotyledonous weed plants and crop plants were placed in plastic or organic planting pots and covered with soil. The compounds of the invention, formulated in the form of wettable powders (WP) or as emulsion concentrates (EC), were then applied to the surface of the covering soil as aqueous suspension or emulsion with addition of 0.5% additive at a water application rate equivalent to 600 l/ha. After the treatment, the pots were placed in a greenhouse and kept under good growth conditions for the test plants. After about 3 weeks, the efficacy of the preparations was scored visually in comparison with untreated controls as percentages. For example, 100% activity=the plants have died, 0% activity=like control plants. Tables D1 to D12 below show the effects of selected compounds of the general formula (I) according to Table 1 on various harmful plants and an application rate corresponding to 80 g/ha, which were obtained by the experimental procedure mentioned above.

[26] = tested on: AMARE: Amaranthus retroflexus; assay: Pre-emergence herbicide efficacy at 80 g/ha, AMARE; settings: scored visually after about 3 weeks
Summary of the method: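 Pre-emergence soil-surface spray, WP/EC formulation, 0.5% additive, 600 l/ha water volume. Greenhouse, ~3 weeks. Visual % activity vs untreated (100% = dead plants).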

[27] = tested on: DIGSA: Digitaria sanguinalis; assay: Pre-emergence herbicide efficacy at 80 g/ha, DIGSA; settings: scored visually after about 3 weeks
Text: as §5

[28] = tested on: POLCO; assay: Pre-emergence herbicide efficacy at 80 g/ha, POLCO; settings: Polygonum convolvulus, scored visually after about 3 weeks
Text: as §5

[29] = tested on: SETVI: Setaria viridis; assay: Pre-emergence herbicide efficacy at 80 g/ha, SETVI; settings: scored visually after about 3 weeks
Text: as §5

[30] = tested on: MATIN: Matricaria inodora; assay: Pre-emergence herbicide efficacy at 80 g/ha, MATIN; settings: scored visually after about 3 weeks
Text: as §5

[31] = tested on: VERPE: Veronica persica; assay: Pre-emergence herbicide efficacy at 80 g/ha, VERPE; settings: scored visually after about 3 weeks
Text: as §5

## Clc1cnc(Cc2c(Br)cccc2Oc2ncc(Cl)cn2)nc1 [Example 1-53]
[1]
  Post-emergence efficacy at 1280 g/ha against ABUTH in %: 100%
[2]
  Post-emergence efficacy at 1280 g/ha against AMARE in %: 100%
[3]
  Post-emergence efficacy at 1280 g/ha against DIGSA in %: 90%
[4]
  Post-emergence efficacy at 1280 g/ha against ECHCG in %: 100%
[5]
  Post-emergence efficacy against KCHSC: 100%
[6]
  Post-emergence efficacy against POAAN: 100%
[7]
  Post-emergence efficacy against SETVI: 100%
[8]
  Post-emergence efficacy against STEME: 100%
[9]
  Post-emergence efficacy against VERPE: 100%
[10]
  Pre-emergence efficacy against ABUTH: 100%
[11]
  Pre-emergence efficacy against ALOMY: 100%
[12]
  Pre-emergence efficacy against AMARE: 100%
[13]
  Pre-emergence efficacy against DIGSA: 100%
[14]
  Pre-emergence efficacy against ECHCG: 100%
[15]
  Pre-emergence efficacy against KCHSC: 100%
[16]
  Pre-emergence efficacy against LOLRI: 100%
[17]
  Pre-emergence efficacy against MATIN: 100%
[18]
  Pre-emergence efficacy against POAAN: 100%
[19]
  Pre-emergence efficacy against SETVI in %: 100%
[20]
  Pre-emergence efficacy against STEME in %: 100%
[21]
  Pre-emergence efficacy against VERPE in %: 100%

## Fc1cnc(Oc2cccc(Cl)c2Cc2ncc(Cl)cn2)nc1 [Example 1-57]
[1]
  Post-emergence efficacy at 1280 g/ha against ABUTH in %: 90%
[2]
  Post-emergence efficacy at 1280 g/ha against AMARE in %: 90%
[3]
  Post-emergence efficacy at 1280 g/ha against DIGSA in %: 90%
[4]
  Post-emergence efficacy at 1280 g/ha against ECHCG in %: 90%
[5]
  Post-emergence efficacy against KCHSC: 90%
[6]
  Post-emergence efficacy against POAAN: 90%
[7]
  Post-emergence efficacy against SETVI: 90%
[8]
  Post-emergence efficacy against STEME: 90%
[9]
  Post-emergence efficacy against VERPE: 90%
[10]
  Pre-emergence efficacy against ABUTH: 100%
[11]
  Pre-emergence efficacy against ALOMY: 100%
[12]
  Pre-emergence efficacy against AMARE: 100%
[13]
  Pre-emergence efficacy against DIGSA: 100%
[14]
  Pre-emergence efficacy against ECHCG: 100%
[15]
  Pre-emergence efficacy against KCHSC: 100%
[16]
  Pre-emergence efficacy against LOLRI: 100%
[17]
  Pre-emergence efficacy against MATIN: 100%
[18]
  Pre-emergence efficacy against POAAN: 100%
[19]
  Pre-emergence efficacy against SETVI in %: 100%
[20]
  Pre-emergence efficacy against STEME in %: 100%
[21]
  Pre-emergence efficacy against VERPE in %: 100%

## Fc1ccc(Oc2ccccc2Cc2ncc(F)cn2)cc1 [Example 1-67]
[22]
  Post-emergence efficacy against AMARE: 100%
[23]
  Post-emergence efficacy against VERPE: 80%
[24]
  Post-emergence efficacy against VIOTR: 100%
[25]
  Pre-emergence efficacy against ABUTH in %: 100%
[26]
  Pre-emergence efficacy against AMARE in %: 90%

## Fc1cnc(Oc2c(F)cccc2Cc2ncc(Cl)cn2)nc1 [Example 1-152]
[22]
  Post-emergence efficacy against AMARE: 90%
[25]
  Pre-emergence efficacy against ABUTH in %: 80%
[26]
  Pre-emergence efficacy against AMARE in %: 100%
[27]
  Pre-emergence efficacy against DIGSA in %: 90%
[28]
  Pre-emergence efficacy against POLCO in %: 90%
[29]
  Pre-emergence efficacy against SETVI in %: 80%

## Fc1cnc(Cc2cccc(Cl)c2Oc2ncc(F)cn2)nc1 [Example 1-156]
[22]
  Post-emergence efficacy against AMARE: 80%
[25]
  Pre-emergence efficacy against ABUTH in %: 90%
[26]
  Pre-emergence efficacy against AMARE in %: 100%
[27]
  Pre-emergence efficacy against DIGSA in %: 90%
[30]
  Pre-emergence efficacy against MATIN in %: 80%
[28]
  Pre-emergence efficacy against POLCO in %: 80%

## Cc1cccc(Cc2ncc(Cl)cn2)c1Oc1ncc(Cl)cn1 [Example 1-166]
[26]
  Pre-emergence efficacy against AMARE in %: 95%
[27]
  Pre-emergence efficacy against DIGSA in %: 100%
[28]
  Pre-emergence efficacy against POLCO in %: 90%
[29]
  Pre-emergence efficacy against SETVI in %: 80%

## Fc1ccc(Cc2c(F)cccc2Oc2ncc(Cl)cn2)nc1 [Example 1-194]
[22]
  Post-emergence efficacy against AMARE: 98%
[26]
  Pre-emergence efficacy against AMARE in %: 100%
[27]
  Pre-emergence efficacy against DIGSA in %: 90%
[28]
  Pre-emergence efficacy against POLCO in %: 90%
[29]
  Pre-emergence efficacy against SETVI in %: 100%
[31]
  Pre-emergence efficacy against VERPE in %: 90%
